Assay results as given in patent US11865195B2, “Evaluation of presence of and vulnerability to atrial fibrillation and other indications using matrix metalloproteinase-based imaging” (Lantheus Medical Imaging, Inc., priority 2011, dated 2024).
Like-named read-outs stand apart in the source and are kept apart here.

Experiments:
activated MMP-9 = molecular target: T1, activated MMP-9 (Homo sapiens, UniProt P14780); assay: In-vitro MMP inhibition assay (fluorogenic peptide substrate); format: biochemical; conditions: 1 h at 27° C., triplicate
T1 construct: purchased R&D Systems
T1 sequence (P14780 107-707 limits assumed): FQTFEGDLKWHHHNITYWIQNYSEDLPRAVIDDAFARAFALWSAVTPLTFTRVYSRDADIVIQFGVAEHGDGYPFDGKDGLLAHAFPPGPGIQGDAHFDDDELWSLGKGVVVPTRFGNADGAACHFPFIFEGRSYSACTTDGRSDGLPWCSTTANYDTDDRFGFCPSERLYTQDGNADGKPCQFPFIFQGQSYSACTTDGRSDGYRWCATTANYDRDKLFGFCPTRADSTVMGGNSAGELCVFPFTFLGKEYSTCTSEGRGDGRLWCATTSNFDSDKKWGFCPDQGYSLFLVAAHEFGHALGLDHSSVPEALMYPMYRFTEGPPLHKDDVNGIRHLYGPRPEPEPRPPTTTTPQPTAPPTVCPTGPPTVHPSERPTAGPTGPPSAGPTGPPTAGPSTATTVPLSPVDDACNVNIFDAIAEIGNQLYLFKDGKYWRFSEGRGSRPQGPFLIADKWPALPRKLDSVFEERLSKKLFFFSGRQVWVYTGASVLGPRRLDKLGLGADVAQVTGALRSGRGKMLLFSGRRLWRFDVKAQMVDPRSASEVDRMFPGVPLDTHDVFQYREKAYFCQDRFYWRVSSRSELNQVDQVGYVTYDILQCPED
Method: (§1) Individual inhibitors were dissolved in TCN buffer (50 mM Tris-HCl, 10 mM CaCl2, 150 mM […], 0.05% Brij 35 at pH 7.5) at appropriate dilutions then added to the wells of a microtiter plate (10 μL/well) in triplicate. Each well of test agent (and appropriate control wells) was then treated with activated MMP-2 or 9 (10 μL of a 40 nM solution in 50 mM Hepes, 10 mM CaCl2), 1% Brij 35 at pH 7.5; R&D Systems) followed by 30 μL TCN buffer and 150 μL the fluorogenic peptide substrate (Mca-PLGL-Dpa-AR-NH2; R&D Systems). The resulting mixtures were incubated 1 h at 27° C. then analyzed using a FL600 fluorescent plate reader (excitation=310/20; emission=420/50; optics=bottom; sensitivity=225) and KC4 Software.

activated MMP-2 = molecular target: T2, activated MMP-2 (Homo sapiens, UniProt P08253); assay: as above; format: biochemical; conditions: 1 h at 27° C., triplicate
T2 construct: purchased R&D Systems
T2 sequence (P08253 110-660): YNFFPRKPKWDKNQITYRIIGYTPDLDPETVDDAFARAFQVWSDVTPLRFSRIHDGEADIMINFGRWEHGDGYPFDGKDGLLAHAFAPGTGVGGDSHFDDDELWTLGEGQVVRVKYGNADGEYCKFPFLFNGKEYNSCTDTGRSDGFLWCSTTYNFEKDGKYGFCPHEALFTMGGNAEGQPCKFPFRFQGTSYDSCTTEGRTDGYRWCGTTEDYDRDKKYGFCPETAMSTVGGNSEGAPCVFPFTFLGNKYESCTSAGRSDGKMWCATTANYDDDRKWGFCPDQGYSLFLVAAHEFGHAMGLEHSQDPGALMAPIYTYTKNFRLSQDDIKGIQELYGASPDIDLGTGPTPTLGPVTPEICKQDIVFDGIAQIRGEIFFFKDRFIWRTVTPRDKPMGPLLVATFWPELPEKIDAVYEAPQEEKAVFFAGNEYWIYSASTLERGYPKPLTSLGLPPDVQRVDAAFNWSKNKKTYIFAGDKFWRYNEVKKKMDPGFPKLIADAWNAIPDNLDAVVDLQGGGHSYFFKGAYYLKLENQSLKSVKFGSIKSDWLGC
Method: as §1

[1] = Tissue biodistribution in the Oncomouse; format: in vivo, mice; conditions: tail vein injection, 1 h post-injection, mean±SEM
Method: Oncomice®, obtained through an in-house breeding program, were anesthetized intramuscularly with 0.1 mL of ketamine/acepromazine (1.8 mL saline, 1.0 mL ketamine, and 0.2 mL acepromazine) prior to dosing and tissue sampling. Individual mice were then injected via the tail vein with an imaging agent of the present invention (0.5-2.0 mCi/kg in 0.1 mL). Mice were euthanized and biodistribution performed at 1 h post-injection. Selected tissues were removed, weighed, and counted on a gamma counter. Results are expressed as the percentage of injected dose per gram tissue (mean±SEM; Table 3).

MMPs = conditions: cited from earlier work; for selectivity for MMP-2 and MMP-9 over the other MMPs: derivatized alanine hydroxamates
activated MMPs = assay: MicroSPECT/CT imaging of aortic arch MMP activation in ApoE-/- mice under anti-lipid therapies; format: in vivo; conditions: 4 weeks of therapy; HFD group 4.99±0.27
Method: Methods: ApoE^−/− mice were fed a high fat diet (HFD) for 2 months to induce atherosclerosis. After two months, the mice were randomly assigned to one of 4 groups: HFD, HFD plus simvastatin (Sim), HFD plus fenofibrate (Fen) and high fat withdrawal (HFW). MicroSPECT/CT imaging using ^99mTc-RP805, a tracer with specificity for activated MMPs was performed after one week and 4 weeks.

Q: Which results are given for `CC(C)C[C@H]1C(=O)N[C@H](C(=O)NCc2ccc(F)cc2)Cc2ccc(cc2)OCCC[C@@H]1C(=O)NO` [Imaging Agent 5]?
A: IC50 (activated MMP-9): 0.74 nM; IC50 (activated MMP-2): 0.58 nM

Q: With `CC(C)C[C@H]1C(=O)N[C@H](C(=O)NCC(=O)NCCCCCF)Cc2ccc(cc2)OCCC[C@@H]1C(=O)NO` [Imaging Agent 4] as the compound, how does the IC50 (activated MMP-9) read?
A: Its IC50 is 15.3 nM.

Q: And the IC50 (activated MMP-2)?
A: The IC50 was 15.4 nM.

Q: What about the “Imaging agent distribution, blood” value [1] of the same compound?
A: The value was 0.41 ± 0.099 % ID/g.

Q: What about the “Imaging agent distribution, bone” value [1] of the same compound?
A: Its value is 1.28 ± 0.200 % ID/g.

Q: And the “Imaging agent distribution, heart” value [1]?
A: Its value is 0.36 ± 0.064 % ID/g.

Q: What about the “Imaging agent distribution, kidney” value [1] of the same compound?
A: Its value is 14.8 ± 1.79 % ID/g.

Q: And the “Imaging agent distribution, liver” value [1]?
A: The value was 23.6 ± 5.19 % ID/g.

Q: And the “Imaging agent distribution, lung” value [1]?
A: Its value is 0.45 ± 0.071 % ID/g.

Q: And the “Imaging agent distribution, muscle” value [1]?
A: Its value is 0.17 ± 0.043 % ID/g.

Q: And the “Imaging agent distribution, spleen” value [1]?
A: The value was 0.34 ± 0.057 % ID/g.

Q: And the “Imaging agent distribution, tumor” value [1]?
A: Its value is 1.12 ± 0.204 % ID/g.

Q: What about the “Imaging agent distribution, urine” value [1] of the same compound?
A: The value was 7.67 ± 5.00 % ID/g.

Q: Which results are given for `CC(C)C[C@H]1C(=O)N[C@H](C(=O)NCCCCCCF)Cc2ccc(cc2)OCCC[C@@H]1C(=O)NO` [Imaging Agent 2]?
A: IC50 (activated MMP-9): 20.2 nM; IC50 (activated MMP-2): 31.6 nM; Imaging agent distribution, blood [1]: 1.07 ± 0.060 % ID/g; Imaging agent distribution, bone [1]: 2.02 ± 0.320 % ID/g; Imaging agent distribution, heart [1]: 0.95 ± 0.065 % ID/g; Imaging agent distribution, kidney [1]: 20.6 ± 3.25 % ID/g; Imaging agent distribution, liver [1]: 13.1 ± 2.17 % ID/g; Imaging agent distribution, lung [1]: 0.97 ± 0.121 % ID/g; Imaging agent distribution, muscle [1]: 0.50 ± 0.073 % ID/g; Imaging agent distribution, spleen [1]: 0.69 ± 0.085 % ID/g; Imaging agent distribution, tumor [1]: 0.95 ± 0.103 % ID/g; Imaging agent distribution, urine [1]: 71.8 % ID/g

Q: With `COc1ccc(Oc2ccc([C@]3(C)CCN([C@H](C)C(=O)NO)C3=O)cc2)cc1OC` [1-11] as the compound, how does the “selectivity for MMP-2 and MMP-9 over the other MMPs” value (MMPs) read?
A: The value was “show selectivity”.

Q: For `CCC(C)(C)C(=O)O[C@H]1C[C@@H](C)C=C2C=C[C@H](C)[C@H](CC[C@@H]3C[C@@H](O)CC(=O)O3)[C@H]21` [simvastatin], which “99mTc-RP805 uptake in the aortic arch under HFD plus anti-lipid drug” value (activated MMPs) is on record?
A: The value was 3.17±0.52 counts per voxel per mCi injected dose.

Q: For `O=C(NO)C1CCCN[C@@H]1C(=O)N1CCC(c2ccccc2)CC1` (stereo partly drawn) [1-8], which “inhibition of MMPs” value (MMPs; succinyl hydroxamate with modified P2' and P3' positions) is on record?
A: The value was “potent inhibition”.

Q: Which “selectivity for MMP-2 over MMP-1 and MMP-3” value (MMPs; long alkyl substituent at P1' position) does the source give for `CCCCCCCCC[C@H](CC(=O)NO)C(=O)N[C@H](C(=O)NC)C(C)(C)C` [1-5] here?
A: The value was “imparts selectivity”.

Q: Which IC50 (activated MMP-9) does the source give for `CC(C)C[C@H]1C(=O)N[C@H](C(=O)NCCCF)Cc2ccc(cc2)OCCC[C@@H]1C(=O)NO` [Imaging Agent 1] here?
A: The IC50 was 3.54 nM.

Q: What about the IC50 (activated MMP-2) of the same compound?
A: Its IC50 is 5.19 nM.

Q: With `CNC(=O)[C@@H]1Cc2ccc(cc2)OCCC[C@H](C(=O)NO)[C@@H](CC(C)C)C(=O)N1` [1-6] as the compound, how does the “activity against MMPs” value (MMPs; macrocyclic succinyl hydroxamate) read?
A: The value was “nanomolar activity”.

Q: With `CC(C)C[C@H]1C(=O)N[C@H](C(=O)NCC(=O)NCCCF)Cc2ccc(cc2)OCCC[C@@H]1C(=O)NO` [Imaging Agent 3] as the compound, how does the IC50 (activated MMP-9) read?
A: Its IC50 is 2.59 nM.

Q: And the IC50 (activated MMP-2)?
A: Its IC50 is 4.61 nM.

Q: For `CCCCCCC[C@H](CC(=O)CS)C(=O)N[C@H](C(=O)NC)C(C)(C)C` [1-15], which “activity against MMPs” value (MMPs; succinyl thiol) is on record?
A: Its value is “good activity”.

Q: With `O=C(NO)C1(CS(=O)(=O)c2ccc(Oc3ccc(Cl)cc3)cc2)CCOCC1` [1-13] as the compound, how does the “selectivity for MMP-2 and MMP-9 over MMP-1” value (MMPs) read?
A: The value was “selectivity”.

Q: With `C[C@H](C(=O)NO)N1CCNc2cc(OCc3ccccc3)ccc2S1(=O)=O` [1-12] as the compound, how does the “selectivity for MMP-2 and MMP-9 over the other MMPs” value (MMPs) read?
A: The value was “show selectivity”.

Q: With `CC(C)OC(=O)C(C)(C)Oc1ccc(C(=O)c2ccc(Cl)cc2)cc1` [fenofibrate] as the compound, how does the “99mTc-RP805 uptake in the aortic arch under HFD plus anti-lipid drug” value (activated MMPs) read?
A: Its value is 2.23±0.28 counts per voxel per mCi injected dose.

Q: Which IC50 (activated MMP-9) does the source give for `CC(C)C[C@H]1C(=O)N[C@H](C(=O)NCc2ccc(OCCCF)cc2)Cc2ccc(cc2)OCCC[C@@H]1C(=O)NO` [Imaging Agent 6] here?
A: The IC50 was 2.98 nM.

Q: And the IC50 (activated MMP-2)?
A: Its IC50 is 2.74 nM.

Q: What about the “Imaging agent distribution, blood” value [1] of the same compound?
A: The value was 0.88 ± 0.061 % ID/g.

Q: What about the “Imaging agent distribution, bone” value [1] of the same compound?
A: Its value is 2.86 ± 0.124 % ID/g.

Q: What about the “Imaging agent distribution, heart” value [1] of the same compound?
A: The value was 0.69 ± 0.073 % ID/g.

Q: And the “Imaging agent distribution, kidney” value [1]?
A: The value was 6.66 ± 1.46 % ID/g.

Q: And the “Imaging agent distribution, liver” value [1]?
A: Its value is 11.3 ± 1.73 % ID/g.

Q: And the “Imaging agent distribution, lung” value [1]?
A: Its value is 1.69 ± 0.382 % ID/g.

Q: What about the “Imaging agent distribution, muscle” value [1] of the same compound?
A: The value was 0.44 ± 0.049 % ID/g.

Q: What about the “Imaging agent distribution, spleen” value [1] of the same compound?
A: Its value is 0.81 ± 0.021 % ID/g.

Q: What about the “Imaging agent distribution, tumor” value [1] of the same compound?
A: Its value is 0.73 ± 0.026 % ID/g.

Q: And the “Imaging agent distribution, urine” value [1]?
A: The value was 7.21 ± 6.71 % ID/g.
